The target of this experiment is T1, CETP (Homo sapiens, UniProt P11597).
T1 construct: from tissue; host or cells: human plasma from healthy men
T1 sequence (P11597 18-493): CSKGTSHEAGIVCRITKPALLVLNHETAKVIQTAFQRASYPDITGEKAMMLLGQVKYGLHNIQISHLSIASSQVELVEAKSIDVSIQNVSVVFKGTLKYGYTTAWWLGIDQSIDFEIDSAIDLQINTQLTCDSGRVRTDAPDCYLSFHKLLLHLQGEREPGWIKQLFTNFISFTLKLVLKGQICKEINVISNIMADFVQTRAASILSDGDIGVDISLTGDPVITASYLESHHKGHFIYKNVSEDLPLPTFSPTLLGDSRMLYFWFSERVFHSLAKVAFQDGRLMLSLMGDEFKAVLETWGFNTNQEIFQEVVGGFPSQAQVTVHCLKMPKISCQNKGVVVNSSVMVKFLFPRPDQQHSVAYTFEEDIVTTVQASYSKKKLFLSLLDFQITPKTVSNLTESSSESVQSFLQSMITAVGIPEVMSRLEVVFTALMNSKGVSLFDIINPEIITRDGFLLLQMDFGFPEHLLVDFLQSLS
Kind of experiment: Inhibitory activity against CETP in human plasma (Roar CETP activity kit, fluorescence). Format: biochemical. The conditions noted are these: plasma from healthy men diluted 1:10 in assay buffer, 37° C., 3 hrs, fluorescence 465/535 nm; read-out: IC50, Inhibition of CETP Activity in Human Plasma. On the procedure: A CETP activity kit (#RB-CETP) was purchased from Roar […], Inc. A donor and an acceptor (each, 4 ul), a 10× assay buffer (177 ul), and each of dilutions of test compounds in dimethylsulfoxide (DMSO, Sigma-Aldrich) (0.01 nM˜10000 nM) were added to each well of black round-bottom 96-well plates (Corning #3792). Plasma samples from healthy men were diluted in the assay buffer (1:10=plasma:assay buffer), and added to each well. The plates were sealed with a sealing film (Sigma-Aldrich, #Z369659), and incubated in a 37° C. incubator microplate shaker (#SLST-3, Seolin Bio) for 3 hrs. After removal of the sealing film, fluorescence was read on Spectra Max Gemini EM (Molecular devices) with an excitation wavelength of 465 nm and an emission wavelength of 535 nm. Measurements were calculated according to the following formula. Calculated value=(Fluorescence Intensity with both compound and plasma−Fluorescence Intensity with compound but without plasma)/(Fluorescence Intensity with plasma but without compound−Fluorescence Intensity with neither compound nor plasma)
From the calculated value, a sigmoidal curve (y=start+(end-start)x^n/k^n+x^n) was drawn using Origin Software (OriginLab Corporation, ver. 8.0724) to obtain IC50 values.
As usually defined, the IC50 is the midpoint of a concentration-inhibition curve. Turning to `CCCN1CCC(N(CC)c2ncc(C(F)(F)F)cc2CN2C(=O)O[C@H](c3cc(C(F)(F)F)cc(C(F)(F)F)c3)[C@@H]2C)CC1` [Example 31], the IC50 came out at 108 nM. With `CCN(c1ncc(C(F)(F)F)cc1CN1C(=O)O[C@H](c2cc(C(F)(F)F)cc(C(F)(F)F)c2)[C@@H]1C)C1CCN(S(C)(=O)=O)CC1` [Example 32, (4S,5R)-5-[3,5-bis(trifluoromethyl)phenyl]-4-methyl-3-({[2-(ethyl)(1-methanesulfonylpiperidin-4-yl)amino]-5-trifluoromethylpyridin-3-yl}methyl)-oxazolidin-2-one], the concentration for half-maximal inhibition (IC50) turned out to be 410 nM.

In the case of `CCN(c1ncc(C(F)(F)F)cc1CN1C(=O)O[C@H](c2cc(C(F)(F)F)cc(C(F)(F)F)c2)[C@@H]1C)C1CCN(C(C)=O)CC1` [Example 33, (4S,5R)-5-[3,5-bis(trifluoromethyl)phenyl]-4-methyl-3-({[2-(ethyl)(1-acetylpiperidin-4-yl)amino]-5-(trifluoromethyl)pyridin-3-yl}methyl)-oxazolidin-2-one], the half-inhibitory concentration (IC50) is 39.9 nM. For `CCC(=O)N1CCC(N(CC)c2ncc(C(F)(F)F)cc2CN2C(=O)O[C@H](c3cc(C(F)(F)F)cc(C(F)(F)F)c3)[C@@H]2C)CC1` [Example 34, (4S,5R)-5-[3,5-bis(trifluoromethyl)phenyl]-4-methyl-3-({[2-(ethyl)(1-propionylpiperidin-4-yl)amino]-5-(trifluoromethyl)pyridin-3-yl}methyl)-oxazolidin-2-one] the value was 62 nM; for `CCN(c1ncc(C(F)(F)F)cc1CN1C(=O)O[C@H](c2cc(C(F)(F)F)cc(C(F)(F)F)c2)[C@@H]1C)C1CCN(C(=O)OC)CC1` [Example 35, methyl 4-{[3-({(4S,5R)-5-[3,5-bis(trifluoromethyl)phenyl]-4-methyl-2-oxo-oxazolidin-3-yl}methyl)-5-(trifluoromethyl)pyridin-2-yl](ethyl)amino}piperidine-1-carboxylate], 20 nM. For `CCOC(=O)N1CCC(N(CC)c2ncc(C(F)(F)F)cc2CN2C(=O)O[C@H](c3cc(C(F)(F)F)cc(C(F)(F)F)c3)[C@@H]2C)CC1` [Example 36, ethyl 4-{[3-({(4S,5R)-5-[3,5-bis(trifluoromethyl)phenyl]-4-methyl-2-oxo-oxazolidin-3-yl}methyl)-5-(trifluoromethyl)pyridin-2-yl](ethyl)amino}piperidine-1-carboxylate] the value was 220 nM; for `CCN(c1ncc(C(F)(F)F)cc1CN1C(=O)O[C@H](c2cc(C(F)(F)F)cc(C(F)(F)F)c2)[C@@H]1C)C1CCN(C(=O)N(C)C)CC1` [Example 37, methyl 4-{[3-({(4S,5R)-5-[3,5-bis(trifluoromethyl)phenyl]-4-methyl-2-oxo-oxazolidin-3-yl}methyl)-5-(trifluoromethyl)pyridin-2-yl](ethyl)amino}-N,N-dimethylpiperidine-1-carboxamide], 498 nM. For `CCN(c1ncc(C(F)(F)F)cc1CN1C(=O)O[C@H](c2cc(C(F)(F)F)cc(C(F)(F)F)c2)[C@@H]1C)C1CCN(CC(=O)OC)CC1` [Example 38, methyl 2-(4-{[3-({(4S,5R)-5-[3,5-bis(trifluoromethyl)phenyl]-4-methyl-2-oxo-oxazolidin-3-yl}methyl)-5-(trifluoromethyl)pyridin-2-yl](ethyl)amino}piperidin-1-yl)acetate] the value was 19.3 nM. With `CCN(c1ncc(C(F)(F)F)cc1CN1C(=O)O[C@H](c2cc(C(F)(F)F)cc(C(F)(F)F)c2)[C@@H]1C)C1CCN(CC(=O)O)CC1` [Example 39, 2-(4-{[3-({(4S,5R)-5-[3,5-bis(trifluoromethyl)phenyl]-4-methyl-2-oxo-oxazolidin-3-yl}methyl)-5-(trifluoromethyl)pyridin-2-yl](ethyl)amino}piperidin-1-yl)acetic acid], the IC50 is 492 nM. With `CCN(c1ncc(Br)cc1CN1C(=O)O[C@H](c2cc(C(F)(F)F)cc(C(F)(F)F)c2)[C@@H]1C)C1CCOCC1` [Example 40, (4S,5R)-5-[3,5-bis(trifluoromethyl)phenyl]-4-methyl-3-({[2-(ethyl)(tetrahydro-2H-pyran-4-yl)amino]-5-bromopyridin-3-yl}methyl)-oxazolidin-2-one], the half-inhibitory concentration (IC50) came out at 19.8 nM. For `CCN(c1ncc(N2CCCC2)cc1CN1C(=O)O[C@H](c2cc(C(F)(F)F)cc(C(F)(F)F)c2)[C@@H]1C)C1CCOCC1` [Example 41, (4S,5R)-5-[3,5-bis(trifluoromethyl)phenyl]-4-methyl-3-({[2-(ethyl)(tetrahydro-2H-pyran-4-yl)amino]-5-(pyrrolidin-1-yl)pyridin-3-yl}methyl)-oxazolidin-2-one] the value was 2.4 nM; for `CCN(c1ncc(N2CCC2)cc1CN1C(=O)O[C@H](c2cc(C(F)(F)F)cc(C(F)(F)F)c2)[C@@H]1C)C1CCOCC1` [Example 43, (4S,5R)-5-[3,5-bis(trifluoromethyl)phenyl]-4-methyl-3-({[2-(ethyl)(tetrahydro-2H-pyran-4-yl)amino]-5-(azetidin-1-yl)pyridin-3-yl}methyl)-oxazolidin-2-one], 7.9 nM; for `CCN(c1ncc(N2CCCCC2)cc1CN1C(=O)O[C@H](c2cc(C(F)(F)F)cc(C(F)(F)F)c2)[C@@H]1C)C1CCOCC1` [Example 44, (4S,5R)-5-[3,5-bis(trifluoromethyl)phenyl]-4-methyl-3-({[2-(ethyl)(tetrahydro-2H-pyran-4-yl)amino]-5-(piperidin-1-yl)pyridin-3-yl}methyl)-oxazolidin-2-one], 57 nM. For `CCN(c1ncc(-c2ccccc2)cc1CN1C(=O)O[C@H](c2cc(C(F)(F)F)cc(C(F)(F)F)c2)[C@@H]1C)C1CCOCC1` [Example 45, (4S,5R)-5-[3,5-bis(trifluoromethyl)phenyl]-4-methyl-3-({[2-(ethyl)(tetrahydro-2H-pyran-4-yl)amino]-5-phenylpyridin-3-yl}methyl)-oxazolidin-2-one] the value was 26.9 nM.

For `CCN(c1ncc(-c2cccc(C)c2)cc1CN1C(=O)O[C@H](c2cc(C(F)(F)F)cc(C(F)(F)F)c2)[C@@H]1C)C1CCOCC1` [Example 46, (4S,5R)-5-[3,5-bis(trifluoromethyl)phenyl]-4-methyl-3-({[2-(ethyl)(tetrahydro-2H-pyran-4-yl)amino]-5-(3-methylphenyl)pyridin-3-yl}methyl)-oxazolidin-2-one], the IC50 is 28 nM. For `CCN(c1ncc(-c2cccc(F)c2)cc1CN1C(=O)O[C@H](c2cc(C(F)(F)F)cc(C(F)(F)F)c2)[C@@H]1C)C1CCOCC1` [Example 47, (4S,5R)-5-[3,5-bis(trifluoromethyl)phenyl]-4-methyl-3-({[2-(ethyl)(tetrahydro-2H-pyran-4-yl)amino]-5-(3-fluorophenyl)pyridin-3-yl}methyl)-oxazolidin-2-one] the value was 45 nM; for `CCOc1cccc(-c2cnc(N(CC)C3CCOCC3)c(CN3C(=O)O[C@H](c4cc(C(F)(F)F)cc(C(F)(F)F)c4)[C@@H]3C)c2)c1` [Example 48, (4S,5R)-5-[3,5-bis(trifluoromethyl)phenyl]-4-methyl-3-({[2-(ethyl)(tetrahydro-2H-pyran-4-yl)amino]-5-(3-ethoxyphenyl)pyridin-3-yl}methyl)-oxazolidin-2-one], 133 nM.

These data come from patent publication US9533977B2, “Oxazolidinone derivative as CETP inhibitor, its preparation method, and pharmaceutical composition comprising the same” (DONG-A ST CO., LTD., priority 2013, dated 2017).
